Measurements published in publication PMC7717699, “Tuning the activity of iminosugars: novel N-alkylated deoxynojirimycin derivatives as strong BuChE inhibitors” (Journal of Enzyme Inhibition and Medicinal Chemistry, 2020).
Read-outs that look alike come from different tables or passages of the source.

What was measured:
[1] = target: T1, β-galactosidase (Escherichia coli) (Escherichia coli, UniProt P00722); test: β-Galactosidase (E. coli) inhibition; assay type: biochemical
T1 construct: purchased
Protocol: (§1) For both families of enzymes used herein (glycosidases and cholinesterases), stock solutions of the inhibitors were prepared in DMSO; DMSO content was kept at 5% (V/V) for glycosidases and 1.25% (V/V) for cholinesterases. Enzymes were properly dissolved in water in a concentration in which the rate of the reaction when using [S] = 4 × KM is in the range 0.12–0.15 Abs/min. In both kinds of enzymes, an initial screening at 100 µM inhibitor concentration was performed, using the following substrate concentrations: [S] = 0.25 mM for α-glucosidase (Saccharomyces cerevisiae), 4.0 mM for β-glucosidase (almonds), 0.60 mM for α-galactosidase (green coffee beans), 0.51 mM for β-galactosidase (Escherichia coli), 1.5 mM for β-galactosidase (Aspergillus Oryzae), 0.12 mM for AChE (Electrophorus electricus), 0.11 mM for BuChE (equine serum). […] Each assay was run in duplicate.
(§2) Glycosidase assays were accomplished using the methodology reported by Bols and co-workers[30]. Each set of experiments is prepared in PS cuvettes using 0.1 M phosphate buffer (pH 6.8) and the corresponding o- or p-nitrophenyl glycopyranosides as substrates. Reactions were monitored at 25 °C by following the formation of the corresponding nitrophenolates at 400 nm (glucosidases and α-galactosidase) or 420 nm (β-galactosidases) over a time of 125 s.
(§3) Assessment of the inhibitory capacity against glycosidases was accomplished using the methodology reported by Bols and co-workers[30]. p-Nitrophenyl glycosides (o- for β-galactosidases) were used as model substrates, and the release of the corresponding p-nitrophenolates at pH 6.8 was monitored spectrophotometrically (λmax = 400 or 420 nm for p- or o-nitrophenolates, respectively).

[2] = target: T2, β-galactosidase (Aspergillus Oryzae) (Aspergillus oryzae, UniProt Q2UCU3); test: β-Galactosidase (A. oryzae) inhibition; assay type: biochemical
T2 construct: purchased
T2 sequence (Q2UCU3 19-1005): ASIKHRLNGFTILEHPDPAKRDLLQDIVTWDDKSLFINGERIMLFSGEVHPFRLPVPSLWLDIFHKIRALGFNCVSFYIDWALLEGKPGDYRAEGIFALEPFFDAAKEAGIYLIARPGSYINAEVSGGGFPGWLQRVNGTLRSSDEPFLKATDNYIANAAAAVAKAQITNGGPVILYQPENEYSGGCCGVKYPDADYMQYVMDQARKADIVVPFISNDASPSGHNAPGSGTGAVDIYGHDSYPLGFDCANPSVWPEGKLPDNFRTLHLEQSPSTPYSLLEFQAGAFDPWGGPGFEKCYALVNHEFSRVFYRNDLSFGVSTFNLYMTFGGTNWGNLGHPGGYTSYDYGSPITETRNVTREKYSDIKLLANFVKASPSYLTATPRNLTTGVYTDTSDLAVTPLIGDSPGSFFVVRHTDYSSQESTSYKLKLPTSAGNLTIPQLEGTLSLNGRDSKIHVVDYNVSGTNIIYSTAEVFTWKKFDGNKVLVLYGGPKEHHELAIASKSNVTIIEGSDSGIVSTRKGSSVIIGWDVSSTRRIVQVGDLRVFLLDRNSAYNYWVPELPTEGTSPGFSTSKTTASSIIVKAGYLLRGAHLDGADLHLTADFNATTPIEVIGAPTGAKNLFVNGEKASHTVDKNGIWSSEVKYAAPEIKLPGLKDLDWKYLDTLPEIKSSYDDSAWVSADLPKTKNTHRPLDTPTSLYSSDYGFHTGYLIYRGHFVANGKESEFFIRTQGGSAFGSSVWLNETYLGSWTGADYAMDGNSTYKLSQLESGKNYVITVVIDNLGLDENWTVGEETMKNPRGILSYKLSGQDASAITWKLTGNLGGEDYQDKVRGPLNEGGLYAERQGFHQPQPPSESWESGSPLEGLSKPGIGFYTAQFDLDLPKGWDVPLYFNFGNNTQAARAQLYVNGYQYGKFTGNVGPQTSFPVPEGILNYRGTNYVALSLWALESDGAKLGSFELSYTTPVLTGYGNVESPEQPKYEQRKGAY
Protocol: as §1, §2, §3

[3] = target: T3, α-galactosidase (green coffee beans) (Coffea arabica, UniProt Q42656); test: α-Galactosidase inhibition; assay type: biochemical
T3 construct: purchased; host or cells: green coffee beans
Protocol: as §1, with “Enzymes” for “For both families of enzymes used herein (glycosidases and cholinesterases), stock solutions of the inhibitors were prepared in DMSO; DMSO content was kept at 5% (V/V) for glycosidases and 1.25% (V/V) for cholinesterases. Enzymes”
Glycosidase assays were accomplished using the methodology reported by Bols and co-workers[30]. Each set of experiments is prepared in PS cuvettes using 0.1 M phosphate buffer (pH 6.8) and the corresponding o- or p-nitrophenyl glycopyranosides as substrates.
as §3

[4] = target: AChE (Electrophorus electricus) (Electrophorus electricus, UniProt O42275); test: AChE inhibition, Ellman's assay; assay type: biochemical; details: for IC50: Electrophorus electricus, pH 8.0, read-out: IC50 AChE
Protocol: as §1
(§4) For cholinesterases, minor modifications on Ellman’s assay[31] were performed. The activity was measured in PS cuvettes containing […] (pH 8.0), 0.88 mM DTNB, and substrate (acetyl- and butyryl-thiocholine iodides for AChE and BuChE, respectively), The formation of the chromophore was monitored at 405 nm over a time of 125 s.
(§5) For strong inhibitors, the mode of inhibition was determined using the Cornish–Bowden method, which involves the use of two different plots: 1/v vs. [I] (Dixon plot) and [S]/v vs. [I]. For the calculation of kinetic parameters (KM, Vmax) a nonlinear regression analysis (least squares fit, GraphPad Prism 8.01) was used. Data are expressed as the mean ± SD.
(§6) Derivatives 11 and 12 were tested also against AChE (Electrophorus electricus) and BuChE (equine serum), as recognised models for human cholinesterases due to their close structural resemblance. For that purpose, Ellman’s colorimetric assay was used; this is an indirect test in which acetyl and butyryl thiocholine iodides are used as model substrates, which upon interaction with the enzyme release thiocholine, which in turn reacts with the chromogen reagent 5,5′-dithiobis(2-nitrobenzoic acid (DTNB) to give 2-nitro-5-mercaptobenzoate (at pH 8.0). The monitoring of the latter at 405 nm furnishes the kinetic parameters.

[5] = target: T4, α-glucosidase (Saccharomyces cerevisiae) (Saccharomyces cerevisiae, UniProt P53341); test: α-Glucosidase inhibition (p-nitrophenyl glycoside substrate); assay type: biochemical
T4 construct: purchased
Protocol: as §1, §2
(Dixon plot) and [S]/v vs. [I]. For the calculation of kinetic parameters (KM, Vmax) a nonlinear regression analysis (least squares fit, GraphPad Prism 8.01) was used. Data are expressed as the mean ± SD.
as §3

β-glucosidase (almonds) = test: β-Glucosidase inhibition (p-nitrophenyl glycoside substrate); assay type: biochemical; details: for Mode of inhibition β-Glucosidase: Cornish–Bowden method; for IC50: almond enzyme, pH 6.8, 25 °C; for Ki: binding to free enzyme, read-out: Kia β-Glucosidase
Protocol: as §1, §2, §5, §3

BuChE (equine serum) = target: T5, BuChE (equine serum) (Equus caballus, UniProt P81908); test: BuChE inhibition, Ellman's assay; assay type: biochemical; details: for IC50: equine serum, pH 8.0, read-out: IC50 BuChE
T5 construct: 0.11 mM for BuChE (equine serum); from tissue; host or cells: equine serum
Protocol: as §1, §4, §5, §6

[6] = tested on: BJ-hTERT human fibroblasts; test: Antiproliferative SRB assay, BJ-hTERT; assay type: cell-based; details: Fibroblast, 48 h, non-tumour fibroblasts
Protocol: We selected the human neuroblastoma cell line SH-SY5Y and the fibroblast cell line BJ-hTERT to evaluate the antiproliferative activity of the compounds. The tests were performed in 96-well plates using the SRB assay[32] with the following specifications. Cell seeding densities were 5000 cells/well for SH-SY5Y and 7000 cells/well for BJ-hTERT. Drug incubation times were 48 h. The optical density of each well was measured at 530 (primary) and 620 (secondary) nm.
To analyse the potential cytotoxicity of title compounds, their antiproliferative activity was measured.

[7] = cited from earlier work

T1 sequence (P00722 2-1024 limits assumed): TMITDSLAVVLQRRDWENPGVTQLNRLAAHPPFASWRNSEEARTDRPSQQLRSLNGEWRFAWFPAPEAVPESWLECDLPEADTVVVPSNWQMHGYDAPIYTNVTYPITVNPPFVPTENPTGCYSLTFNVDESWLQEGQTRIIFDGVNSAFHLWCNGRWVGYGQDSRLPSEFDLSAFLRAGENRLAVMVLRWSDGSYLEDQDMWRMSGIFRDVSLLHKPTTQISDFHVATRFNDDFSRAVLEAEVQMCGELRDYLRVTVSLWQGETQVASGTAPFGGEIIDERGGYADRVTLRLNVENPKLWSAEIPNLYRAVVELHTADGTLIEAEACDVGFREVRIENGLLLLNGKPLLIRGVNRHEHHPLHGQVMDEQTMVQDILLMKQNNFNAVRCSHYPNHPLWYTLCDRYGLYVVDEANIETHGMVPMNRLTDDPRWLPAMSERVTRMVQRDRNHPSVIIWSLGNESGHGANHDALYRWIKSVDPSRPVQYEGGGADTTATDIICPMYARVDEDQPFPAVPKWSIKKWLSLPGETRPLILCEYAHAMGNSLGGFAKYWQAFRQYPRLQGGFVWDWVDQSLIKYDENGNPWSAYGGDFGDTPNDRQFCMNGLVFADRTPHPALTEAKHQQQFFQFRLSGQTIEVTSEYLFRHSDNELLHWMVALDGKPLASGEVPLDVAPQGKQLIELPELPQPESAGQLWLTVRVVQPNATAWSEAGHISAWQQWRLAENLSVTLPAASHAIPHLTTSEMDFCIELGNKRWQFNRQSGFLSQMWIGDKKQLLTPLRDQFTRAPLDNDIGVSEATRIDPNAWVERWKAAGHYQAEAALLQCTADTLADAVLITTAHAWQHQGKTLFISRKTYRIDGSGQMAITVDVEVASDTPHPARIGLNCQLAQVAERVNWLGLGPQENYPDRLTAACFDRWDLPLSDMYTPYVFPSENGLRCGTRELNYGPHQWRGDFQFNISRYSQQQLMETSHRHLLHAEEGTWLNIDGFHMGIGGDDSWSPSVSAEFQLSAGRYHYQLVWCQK
Chain of AChE (Electrophorus electricus) (O42275 24-633): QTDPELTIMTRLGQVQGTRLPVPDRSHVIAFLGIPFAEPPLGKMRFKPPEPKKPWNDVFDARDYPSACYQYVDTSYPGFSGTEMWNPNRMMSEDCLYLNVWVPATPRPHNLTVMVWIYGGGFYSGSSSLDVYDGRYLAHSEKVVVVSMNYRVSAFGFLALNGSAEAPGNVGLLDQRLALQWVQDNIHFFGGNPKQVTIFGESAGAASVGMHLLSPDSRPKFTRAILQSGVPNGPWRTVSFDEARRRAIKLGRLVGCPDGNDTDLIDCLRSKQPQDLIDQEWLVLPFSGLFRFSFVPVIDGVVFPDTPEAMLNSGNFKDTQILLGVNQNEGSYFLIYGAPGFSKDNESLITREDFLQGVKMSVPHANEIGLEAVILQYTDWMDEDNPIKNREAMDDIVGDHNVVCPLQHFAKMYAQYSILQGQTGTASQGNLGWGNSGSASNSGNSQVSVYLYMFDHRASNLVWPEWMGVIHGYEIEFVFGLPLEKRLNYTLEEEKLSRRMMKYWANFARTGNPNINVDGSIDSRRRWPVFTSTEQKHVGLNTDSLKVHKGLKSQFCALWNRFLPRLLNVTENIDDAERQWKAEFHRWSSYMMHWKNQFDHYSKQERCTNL
T5 sequence (P81908 whole entry): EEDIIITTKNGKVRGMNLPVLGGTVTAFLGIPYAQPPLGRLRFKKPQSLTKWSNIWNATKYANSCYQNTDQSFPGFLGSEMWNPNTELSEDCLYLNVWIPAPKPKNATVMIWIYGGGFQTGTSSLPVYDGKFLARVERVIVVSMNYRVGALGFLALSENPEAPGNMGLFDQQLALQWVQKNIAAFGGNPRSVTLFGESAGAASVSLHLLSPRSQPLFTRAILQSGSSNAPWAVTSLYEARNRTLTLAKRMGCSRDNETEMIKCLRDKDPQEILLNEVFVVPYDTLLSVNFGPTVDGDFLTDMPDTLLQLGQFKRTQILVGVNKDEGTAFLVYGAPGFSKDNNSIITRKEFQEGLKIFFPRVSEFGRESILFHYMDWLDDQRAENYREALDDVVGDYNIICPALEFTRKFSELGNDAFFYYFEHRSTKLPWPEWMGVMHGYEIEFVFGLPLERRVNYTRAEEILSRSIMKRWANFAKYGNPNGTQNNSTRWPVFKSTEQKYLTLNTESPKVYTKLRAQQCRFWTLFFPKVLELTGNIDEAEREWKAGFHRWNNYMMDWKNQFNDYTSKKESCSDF
T4 sequence (P53341 whole entry): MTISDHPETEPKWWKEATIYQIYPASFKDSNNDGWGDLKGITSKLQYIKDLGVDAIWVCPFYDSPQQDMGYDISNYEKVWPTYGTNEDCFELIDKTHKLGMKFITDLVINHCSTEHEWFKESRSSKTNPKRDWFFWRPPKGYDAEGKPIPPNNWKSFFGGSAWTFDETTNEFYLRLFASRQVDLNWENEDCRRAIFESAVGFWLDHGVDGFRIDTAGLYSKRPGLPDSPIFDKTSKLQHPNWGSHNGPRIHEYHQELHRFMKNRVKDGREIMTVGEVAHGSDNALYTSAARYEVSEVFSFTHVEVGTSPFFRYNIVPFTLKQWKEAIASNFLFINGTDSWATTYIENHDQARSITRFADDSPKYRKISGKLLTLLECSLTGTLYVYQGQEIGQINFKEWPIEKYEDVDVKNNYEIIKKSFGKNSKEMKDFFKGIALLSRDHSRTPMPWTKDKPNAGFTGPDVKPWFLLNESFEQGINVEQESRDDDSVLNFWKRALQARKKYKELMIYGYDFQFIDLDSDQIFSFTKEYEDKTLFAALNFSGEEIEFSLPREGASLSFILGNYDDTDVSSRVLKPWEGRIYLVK
T3 sequence (Q42656 16-378): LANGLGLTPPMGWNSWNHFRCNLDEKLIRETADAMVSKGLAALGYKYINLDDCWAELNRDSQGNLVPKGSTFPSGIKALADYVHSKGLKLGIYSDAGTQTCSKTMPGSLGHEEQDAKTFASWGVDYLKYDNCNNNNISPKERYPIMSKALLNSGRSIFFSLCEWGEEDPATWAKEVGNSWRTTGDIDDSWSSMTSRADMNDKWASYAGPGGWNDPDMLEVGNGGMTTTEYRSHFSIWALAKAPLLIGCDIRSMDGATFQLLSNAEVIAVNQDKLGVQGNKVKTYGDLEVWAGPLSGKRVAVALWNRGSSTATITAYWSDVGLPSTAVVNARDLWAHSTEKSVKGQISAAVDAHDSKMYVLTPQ

Compound: OC[C@@H]1[C@@H](O)[C@H](O)[C@@H](O)CN1CCCCCCOCCc1ccc(O)cc1 [Compound 11b]
- IC50 [1]: > 100 µM
- IC50 [2]: > 100 µM
- IC50 [3]: > 100 µM
- IC50 [4]: > 100 µM
- IC50 [5]: > 100 µM
- Mode of inhibition β-Glucosidase (β-glucosidase (almonds)): Competitive
- IC50 (β-glucosidase (almonds)): 12 µM
- Ki (β-glucosidase (almonds)): 17 µM
- IC50 (BuChE (equine serum)): > 100 µM

Compound: OC[C@@H]1[C@@H](O)[C@H](O)[C@@H](O)CN1CCCCCOCCc1ccccc1 [Compound 12a]
- IC50 [1]: > 100 µM
- IC50 [2]: > 100 µM
- IC50 [3]: > 100 µM
- IC50 [4]: > 100 µM
- IC50 [5]: > 100 µM
- Mode of inhibition β-Glucosidase (β-glucosidase (almonds)): Competitive
- IC50 (β-glucosidase (almonds)): 28 µM
- Ki (β-glucosidase (almonds)): 23 ± 4 µM
- IC50 (BuChE (equine serum)): > 100 µM

Compound: OC[C@@H]1[C@@H](O)[C@H](O)[C@@H](O)CN1CCCCCCOCCc1ccc(O)c(O)c1 [Compound 11d]
- IC50 [1]: > 100 µM
- IC50 [2]: > 100 µM
- IC50 [3]: > 100 µM
- IC50 [4]: > 100 µM
- GI50 [6]: 39 ± 5 µM
- IC50 [5]: > 100 µM
- Mode of inhibition β-Glucosidase (β-glucosidase (almonds)): Competitive
- IC50 (β-glucosidase (almonds)): 15 µM
- Ki (β-glucosidase (almonds)): 11 µM
- IC50 (BuChE (equine serum)): 76 µM

Compound: CCCCN1C[C@H](O)[C@@H](O)[C@H](O)[C@H]1CO [N-butyl-DNJ, N-butyl-1-deoxynojirimycin]
- pKa [7]: 7.1

Compound: COc1cc(CCOCCCCCCN2C[C@H](O)[C@@H](O)[C@H](O)[C@H]2CO)ccc1O [Compound 11f]
- IC50 [1]: > 100 µM
- IC50 [2]: > 100 µM
- IC50 [3]: > 100 µM
- Mode of inhibition AChE ([4]; Cornish–Bowden method): Non-competitive
- IC50 [4]: 7.3 µM
- Ki ([4]; binding to enzyme-substrate complex, read-out: Kib AChE): 17 ± 5 µM
- Ki ([4]; binding to free enzyme, read-out: Kia AChE): 17 ± 5 µM
- IC50 [5]: > 100 µM
- Mode of inhibition β-Glucosidase (β-glucosidase (almonds)): Competitive
- IC50 (β-glucosidase (almonds)): 8.2 µM
- Ki (β-glucosidase (almonds)): 9.6 µM
- Mode of inhibition BuChE (BuChE (equine serum); Cornish–Bowden method): Mixed
- Ki (BuChE (equine serum); binding to enzyme-substrate complex, read-out: Kib BuChE): 5 µM
- Ki (BuChE (equine serum); binding to free enzyme, read-out: Kia BuChE): 1.5 µM
- IC50 (BuChE (equine serum)): 1.8 µM

Compound: OC[C@@H]1[C@@H](O)[C@H](O)[C@@H](O)CN1CCCCCCOCCc1ccccc1 [Compound 11a]
- IC50 [1]: > 100 µM
- IC50 [2]: > 100 µM
- IC50 [3]: > 100 µM
- IC50 [4]: > 100 µM
- IC50 [5]: 126 µM
- Ki [5]: 93 µM
- Mode of inhibition α-Glucosidase ([5]; Cornish–Bowden method): Competitive
- Mode of inhibition β-Glucosidase (β-glucosidase (almonds)): Competitive
- IC50 (β-glucosidase (almonds)): 4.6 µM
- Ki (β-glucosidase (almonds)): 6.5 µM
- IC50 (BuChE (equine serum)): > 100 µM

Compound: OC[C@@H]1[C@@H](O)[C@H](O)[C@@H](O)CN1CCCCCOCCc1ccc(O)c(O)c1 [Compound 12d]
- IC50 [4]: > 100 µM
- IC50 [5]: > 100 µM
- IC50 (β-glucosidase (almonds)): > 50 µM
- IC50 (BuChE (equine serum)): > 100 µM
